Calls of active or inactive are those of the source. The rule behind the calls is not given here.
Key:
[1] = target: T1, Lysocardiolipin acyltransferase 1 (Homo sapiens) (UniProt Q6UWP7); assay: Substrate activity at recombinant human ALCAT1 expressed in HEK293 cells using oleoyl-CoA as substrate assessed as biotinylated (BTN)-di-oleoyl LPG product formation by Rapidfire-triple quad mass spectrometry analysis; settings: filed as modulator, time <= 64.0 min, TDE = time-dependent effect
T1 sequence (whole entry): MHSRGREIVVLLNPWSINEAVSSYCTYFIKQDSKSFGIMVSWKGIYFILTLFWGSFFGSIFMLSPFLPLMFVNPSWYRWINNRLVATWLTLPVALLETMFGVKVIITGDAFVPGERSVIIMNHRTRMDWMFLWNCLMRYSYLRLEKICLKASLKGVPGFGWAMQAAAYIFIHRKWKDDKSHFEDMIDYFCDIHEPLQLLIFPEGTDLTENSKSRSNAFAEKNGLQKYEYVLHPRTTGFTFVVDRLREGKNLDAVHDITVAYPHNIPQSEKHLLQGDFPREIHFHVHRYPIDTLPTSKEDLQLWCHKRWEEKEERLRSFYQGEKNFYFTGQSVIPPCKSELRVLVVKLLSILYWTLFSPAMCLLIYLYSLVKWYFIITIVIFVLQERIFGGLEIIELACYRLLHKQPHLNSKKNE

[2] = target: T1, Lysocardiolipin acyltransferase 1 (Homo sapiens); assay: Substrate activity at recombinant human ALCAT1 expressed in HEK293 cells using oleoyl-CoA as substrate assessed as acylated product formation by Rapidfire-triple quad mass spectrometry analysis; settings: filed as modulator

Activity [1] | Activity [2] | SMILES
Tde |  | O=C1N[C@H]2[C@H](CS[C@H]2CCCCC(=O)OCCCCCCC/C=C\CCCCCCCC(=O)OC[C@@H](O)COP(=O)(O)OCC(O)CO)N1 (some centres not stated)
 | Active | CCCCCCCCCCCCCCCC(=O)OC[C@H](O)COP(=O)(O)OC[C@H](O)CO

Source: ChEMBL document CHEMBL5113444, “Synthesis of biotinylated-LPG as a chemical biology tool enabling discovery of ALCAT1 modulators” (Bioorg Med Chem Lett, 2022)
